# From patent publication US20080311126A1, “Antisense Oligonucleotides Directed to Ribonucleotide Reducatase R2 and Uses Thereof in Combination Therapies for the Treatment of Cancer” (Genesense Technologies, Inc, priority 2004, published 2008)
# “Also recorded” adds a separate entry of the source.
# Columns and labels:
# Human Cervical Carcinoma = experiment: Tumour growth assay, human cervical carcinoma in SCID mice; assay type: in vivo
# [1] = test system: Human taxol-resistant promyelocytic leukaemia cells (HL-60); experiment: HL-60 taxol-resistant promyelocytic leukaemia xenograft in SCID mice; assay type: in vivo
# Description: Human taxol-resistant promyelocytic leukaemia cells (HL-60) (7×10^6 cells in 100 μl of PBS) were injected into the right flank of 6-7 weeks old female SCID mice. After the size of tumour reached an approximate volume of 100 mm^3, 10 days post tumour cell injection, SEQ ID NO:1 was administered by bolus infusion into the tail vein every other day at 10 mg/kg. Control animals received saline alone for the same period. The anti-tumour effect of SEQ ID NO:1 was further compared to that of taxol. Taxol was administered i.p. once a week at a dose of 10 mg/kg. Anti-tumour activity was estimated by the inhibition of tumour volume, which was measured with caliper. Each point represents mean tumour volume calculated from 10 animals per experimental group. In addition animals were sacrificed and tumour weights taken at the end of the study.
# [2] = test system: HCT116 colon cell carcinoma; experiment: Relative colony forming efficiency (Example 17, Table 13); assay type: cell-based, human; conditions: averages of 2-8 determinations
# Procedure, shortened: (§1)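 Phosphorothioate antisense oligodeoxynucleotides, at 0.2 μM unless otherwise indicated, were applied with 2.5 μg DOTMA/DOPE (Lipofectin) for 4 h. Colonies stained with methylene blue and scored, with viability sometimes checked by trypan blue exclusion. Values given as % inhibition of colony formation relative to lipofectin-only controls.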
# [3] = test system: HepG2 hepatocellular carcinoma; experiment: as above; assay type: cell-based, human; conditions: averages of 2-8 determinations
# Procedure, shortened: as §1
# [4] = test system: MDA PaCa-2 pancreatic cell carcinoma; experiment: as above; assay type: cell-based, human; conditions: MIA PaCa-2 pancreatic cell carcinoma; averages of 2-8 determinations
# Procedure, shortened: as §1
# [5] = test system: T24 bladder cell carcinoma; experiment: as above; assay type: cell-based, human; conditions: averages of 2-8 determinations
# Procedure, shortened: as §1
# [6] = test system: MDA-MB-231 breast cell adenocarcinoma; experiment: as above; assay type: cell-based, human; conditions: averages of 2-8 determinations
# Procedure, shortened: as §1
# [7] = test system: PC-3 prostrate cell adenocarcinoma; experiment: as above; assay type: cell-based, human; conditions: averages of 2-8 determinations
# Procedure, shortened: as §1
# A549 lung cell carcinoma = experiment: as above; assay type: cell-based, human; conditions: averages of 2-8 determinations
# Procedure, shortened: as §1
# [8] = test system: T-47D breast ductal carcinoma; experiment: as above; assay type: cell-based, human; conditions: averages of 2-8 determinations
# Procedure, shortened: as §1
# [9] = test system: Caki-1 human renal carcinoma; experiment: Caki-1 renal tumour xenograft in SCID mice, SEQ ID NO:1 and interleukin-2; assay type: in vivo; conditions: Example 10; SEQ ID NO:1 10 mg/kg/48 hours i.v.; IL2 20000 or 5000 unit 2 times per day i.p.
# Description: Cell line: Human renal carcinoma cell line (Caki-1) was grown as monolayer culture in Minimum essential medium (α-MEM) supplemented with 10% fetal bovine serum (FBS), 0.1 mM non-essential amino acid, 1.0 mM sodium pyruvate, 100 U/ml penicillin, 100 μg/ml streptomycin and 0.25 μg/ml amphotericin B and 2 mM L-alanyl-1-glutamine at 37° C. in an atmosphere of 5% CO2 in air. The tumour cells were routinely subcultured twice weekly by trypsin-EDTA treatment. The cells were harvested from subconfluent logarithmically growing culture by treatment with trypsin-EDTA and counted for tumour inoculation.
# Tumour Inoculation: An acclimation period of at least 7 days was allowed between animal receipt and commencement of tumour inoculation. […]
# Groups and treatments: The following treatments were evaluated in this experiment: • 1. […]
# Tumour sizes were measured every week day from day 7 after the tumour cell inoculation in two dimensions using a caliper, and the volume was expressed in mm^3 using the formula: V=0.5 a×b^2, where a and b are the long and short diameters of the tumour, respectively. Mean tumour volumes calculated from each measurement were then plotted in a standard graph to compare the anti-tumour efficacy to that of controls. A day after the last treatment, tumours were excised from the animals and their weights were measured.
# [10] = test system: MDA-MB-231 human breast cancer cells; experiment: MDA-MB-231 breast tumour xenograft in CD-1 nude mice; assay type: in vivo
# Description: MDA-MB-231 human breast cancer cells (1×10^7 cells in 100 μl of PBS) were subcutaneously injected into the right flank of 6-7 weeks old female CD-1 nude mice. After the size of tumour reached an approximate volume of 100 mm^3, 5 days post tumour cell injection, SEQ ID NO:1, or the scrambled control oligonucleotide (SEQ ID NO:3) were administered by bolus infusion into the tail vein every other day at 10 mg/kg. Control animals received saline alone for the same period. Antitumour effect of SEQ ID NO:1 was further compared to that of taxol or doxorubicin alone or in combination. Taxol was administered intravenously once a week at a dose of 10 mg/kg for three (FIG. 17A) or four weeks (FIG. 17C). Doxorubicin was administered intravenously once a week at a dose of 5 mg/kg for first three weeks (FIG. 17A) or for two weeks (FIG. 17C). All treatments were stopped at day 33 (FIG. 17A) or at day 26 (FIG. 17C), respectively. A day after the last treatment, tumours were excised from the animals and their weights were measured. […] In FIG. 17C, antitumour activities were estimated by the inhibition of tumour volume, which was measured with calipers. Each point represents mean tumour volume calculated from 10 animals per experimental group.
# [11] = test system: Human Breast Adenocarcinoma; experiment: Tumour growth assay, human breast adenocarcinoma in mice; assay type: in vivo
# Human Lung Carcinoma = experiment: Tumour growth assay, human lung carcinoma in CD-1 Nude mice; assay type: in vivo
# [12] = test system: PC-3 human prostatic cancer cells; experiment: PC-3 prostatic tumour xenograft in SCID mice; assay type: in vivo; conditions: FIG. 14A; SEQ ID NO:1 10 mg/kg 18 times; mitoxantrone 2 mg/kg once
# Description: In both experiments, PC-3 human prostatic cancer cells (1×10^7 cells in 100 μl of PBS) were subcutaneously injected into the right flank of 6-7 weeks old male SCID mice. After the size of tumour reached an approximate volume of 50 mm^3, 14 days post tumour cell injection, SEQ ID NO:1 was administered by bolus infusion into the tail vein every other day at 10 mg/kg 18 times (FIG. 14A) or 17 times (FIG. 14B), respectively. Control animals received saline alone for the same period. Antitumour effect of SEQ ID NO:1 was further compared to that of mitoxantrone (Novantrone®) alone or in combination. Mitoxantrone was administered intravenously once at the beginning of the treatments at a dose of 2 mg/kg (FIG. 14A) or once a week for four weeks at a reduced dose of 0.8 mg/kg (FIG. 14B). All treatments were stopped at day 50 (FIG. 14A) or 48 (FIG. 14B), respectively. A day after the last treatment, tumours were excised from the animals and their weights were measured.
# [13] = test system: Human Colon Adenocarcinoma; experiment: Tumour growth assay, human colon adenocarcinoma in CD-1 nude mice; assay type: in vivo
# [14] = Human Cervical Carcinoma^2 (second entry), SCID mice, Day 17 after tumour implantation
sequence,measurement,setting,value
"GGCTAAATCGCTCCACCAAG (chemistry not given here) [SEQ ID NO: 1, antisense oligonucleotide that hybridizes to the coding region of human ribonucleotide reductase R2 mRNA]",Inhibition of tumour weight,Human Cervical Carcinoma; Human Cervical Carcinoma^2 (first entry),approximately 90%
same,Inhibition of tumour size,Human Cervical Carcinoma; [14],approximately 60% in SCID mice on
same,Inhibition of tumour weight,Human Cervical Carcinoma; [14],approximately 60% in SCID mice on
same,Tumour weight as % of saline control,"[1]; HL-60 (leukemia), Taxol resistance, SCID",38%
same,"anti-tumour effect (tumour volume, tumour weight)","[1]; SEQ ID NO:1 10 mg/kg every other day, Taxol 10 mg/kg i.p. weekly",significant reduction of tumour weight
same,"Reduced relative colony forming efficiency, HCT116 (% inhibition of colony forming ability)",[2],70.46%
same,"Reduced relative colony forming efficiency, HepG2 (% inhibition of colony forming ability)",[3],75.89%
same,"Reduced relative colony forming efficiency, MIA PaCa-2 (% inhibition of colony forming ability)",[4],75.62%
same,"Reduced relative colony forming efficiency, T24 (% inhibition of colony forming ability)",[5],76.79%
same,"Reduced relative colony forming efficiency, MDA-MB-231 (% inhibition of colony forming ability)",[6],90.21%
same,"Reduced relative colony forming efficiency, PC-3 (% inhibition of colony forming ability)",[7],83.23%
same,"Reduced relative colony forming efficiency, A549 (% inhibition of colony forming ability)",A549 lung cell carcinoma,95.14%
same,"Reduced relative colony forming efficiency, T-47D (% inhibition of colony forming ability)",[8],66.12%
same,"anti-tumour efficacy (tumour volume, tumour weight)",[9],anti-tumour efficacy as monotherapies; also recorded: superior to both high and low dose IL-2 therapy
same,Tumour weight as % of saline control,"[10]; MDA-MB-231 (breast), Mouse CD-1",12.6%
same,"antitumour effect (tumour weight, tumour volume)","[10]; oligonucleotide 10 mg/kg every other day i.v., taxol 10 mg/kg, doxorubicin 5 mg/kg i.v. once a week",delay of tumour growth compared to saline control in all three experiments; also recorded: superior to the inhibitory effects observed with taxol or doxorubicin alone
same,Inhibition of tumour weight,[11]; Day 31 after tumour implantation,approximately 80% on Day 31 after
same,Inhibition of tumour size,[11]; Human Breast Adenocarcinoma,approximately 80%
same,Inhibition of tumour size,"Human Lung Carcinoma; CD-1 Nude mice, Days 14 to 19 after tumour implantation",approximately 85% in CD-1 Nude mice
same,Inhibition of tumour weight,Human Lung Carcinoma; Human Lung Carcinoma,approximately 70%
same,antitumour effect (tumour weight),[12],significant delay of tumour growth
same,Inhibition of tumour size,"[13]; CD-1 nude mice, Day 18 after tumour implantation",mice by approximately 80% on Day 18
same,dose dependence of decrease in tumour weight,"[13]; CD-1 nude mice, doses of 1.0 to 6.0 mg/kg",Dose-dependent decrease in tumour
same,Inhibition of tumour weight,[13]; Human Colon Adenocarcinoma,approximately 80%
